Reference: patent publication US8063098B2, “GlyT1 receptor antagonists” (Hoffmann-La Roche Inc., priority 2008, dated 2011)

Target: T1, mGlyT-1b (Mus musculus, UniProt P28571)
T1 construct: host or cells: Flp-in-CHO
T1 sequence (P28571 1-651 isoform P28571-2): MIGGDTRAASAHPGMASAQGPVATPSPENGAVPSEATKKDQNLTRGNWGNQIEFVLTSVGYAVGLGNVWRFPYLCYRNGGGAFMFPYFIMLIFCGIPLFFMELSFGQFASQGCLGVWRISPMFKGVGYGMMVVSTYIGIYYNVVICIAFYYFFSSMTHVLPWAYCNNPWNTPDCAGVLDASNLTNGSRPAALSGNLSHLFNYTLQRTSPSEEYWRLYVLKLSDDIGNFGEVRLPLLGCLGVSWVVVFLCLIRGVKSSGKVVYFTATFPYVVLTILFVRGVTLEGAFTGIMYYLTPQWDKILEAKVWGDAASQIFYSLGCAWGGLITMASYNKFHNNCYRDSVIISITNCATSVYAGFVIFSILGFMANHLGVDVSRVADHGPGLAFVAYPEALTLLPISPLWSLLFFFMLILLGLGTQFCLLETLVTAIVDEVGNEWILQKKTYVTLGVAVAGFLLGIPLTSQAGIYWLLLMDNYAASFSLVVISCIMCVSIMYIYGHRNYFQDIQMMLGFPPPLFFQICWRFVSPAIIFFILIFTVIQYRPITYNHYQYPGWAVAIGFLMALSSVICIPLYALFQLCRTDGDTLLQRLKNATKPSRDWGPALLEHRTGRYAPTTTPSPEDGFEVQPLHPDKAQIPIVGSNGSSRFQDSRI
Assay: Glycine uptake inhibition assay (mGlyT-1b), [3H]-glycine uptake in Flp-in-CHO cells
Assay type: cell-based
Conditions: Flp-in-CHO cells stably transfected with mGlyT1b cDNA, 20 min at 22° C. preincubation
Description: Nutrient mixture F-12 (Gibco Life-technologies), fetal bovine serum (FBS) 5%, (Gibco life technologies), Penicillin/Streptomycin 1% (Gibco life technologies), Hygromycin 0.6 mg/ml (Gibco life technologies), Glutamine 1 mM Gibco life technologies) • Uptake buffer (UB): 150 mM NaCl, 10 mM Hepes-Tris, pH 7.4, […], 2.5 mM KCl, 2.5 mM MgSO4, 10 mM (+) D-glucose. • Flp-in™-CHO (Invitrogen Cat n° R758-07) cells stably transfected with mGlyT1b cDNA. Glycine Uptake Inhibition Assay (mGlyT-1b)
On day 1 mammalian cells, (Flp-in™-CHO), transfected with mGlyT-1b cDNA, were plated at the density of 40,000 cells/well in complete F-12 medium, without hygromycin in 96-well culture plates. On day 2, the medium was aspirated and the cells were washed twice with uptake buffer (UB). The cells were then incubated for 20 min at 22° C. with either (i) no potential competitor, (ii) 10 mM non-radioactive glycine, (iii) a concentration of a potential inhibitor. A range of concentrations of the potential inhibitor was used to generate data for calculating the concentration of inhibitor resulting in 50% of the effect (e.g. IC50, the concentration of the competitor inhibiting glycine uptake of 50%). A solution was then immediately added containing [^3H]-glycine 60 nM (11-16 Ci/mmol) and 25 μM non-radioactive glycine. The plates were incubated with gentle shaking and the reaction was stopped by aspiration of the mixture and washing (three times) with ice-cold UB. The cells were lysed with scintillation liquid, shaken 3 hours and the radioactivity in the cells was counted using a scintillation counter.

| IC50 | Compound |
| --- | --- |
| 0.0368 µM | COc1cc(C(F)(F)F)ccc1C(=O)NC(c1ccccc1)C1(N2CCCC2)CCC1 (stereo not shown) [Example 17, 2-Methoxy-N-[phenyl-(1-pyrrolidin-1-yl-cyclobutyl)-methyl]-4-trifluoromethyl-benzamide] |
| 0.0095 µM | CSc1cc(C(F)(F)F)cc(O)c1C(=O)NC(c1ccccc1)C1(N2CCCC2)CCC1 (stereo not shown) [Example 69, 2-Hydroxy-6-methylsulfanyl-N-[phenyl-(1-pyrrolidin-1-yl-cyclobutyl)-methyl]-4-trifluoromethyl-benzamide] |
| 0.0237 µM | COc1cc(C(F)(F)F)cc(SC)c1C(=O)NC(c1ccccc1)C1(N2CCCCC2)CCC1 (stereo not shown) [Example 49, 2-Methoxy-6-methylsulfanyl-N-[phenyl-(1-piperidin-1-yl-cyclobutyl)-methyl]-4-trifluoromethyl-benzamide] |
| 0.0098 µM | CSc1cc(C(F)(F)F)ccc1C(=O)NC(c1ccccc1)C1(N2CCCC2)CCC1 (single isomer, unassigned; (+)) [Example 35, (+)-2-Methylsulfanyl-N-[phenyl-(1-pyrrolidin-1-yl-cyclobutyl)-methyl]-4-trifluoromethyl-benzamide] |
| 0.0683 µM | CSc1cc(C(F)(F)F)cc(C(F)(F)F)c1C(=O)NC(c1ccccc1)C1(N2CCCC2)CC1 (stereo not shown) [Example 6, 2-Methylsulfanyl-N-[phenyl-(1-pyrrolidin-1-yl-cyclopropyl)-methyl]-4,6-bis-trifluoromethyl-benzamide] |
| 0.0139 µM | CSc1cc(C(F)(F)F)ccc1C(=O)NC(c1cccc(F)c1)C1(N2CCCC2)CCC1 (stereo not shown) [Example 55, N-[(3-Fluoro-phenyl)-(1-pyrrolidin-1-yl-cyclobutyl)-methyl]-2-methylsulfanyl-4-trifluoromethyl-benzamide] |
| 0.0597 µM | CSc1cc(C(F)(F)F)ccc1C(=O)NC(c1ccc(Cl)cc1)C1(N2CCCC2)CCC1 (stereo not shown) [Example 36, N-[(4-Chloro-phenyl)-(1-pyrrolidin-1-yl-cyclobutyl)-methyl]-methylsulfanyl-4-trifluoromethyl-benzamide] |
| 0.0509 µM | CSc1cc(C(F)(F)F)cc(C(F)(F)F)c1C(=O)NC(c1ccccc1)C1(N2CCCC2)CC1 (single isomer, unassigned; (-)) [Example 29, (−)-2-Methylsulfanyl-N-[phenyl-(1-pyrrolidin-1-yl-cyclopropyl)-methyl]-4,6-bis-trifluoromethyl-benzamide] |
| 0.0496 µM | COc1cc(C(F)(F)F)cc(SC)c1C(=O)NC(c1ccccc1)C1(N2CCOCC2)CCC1 (stereo not shown) [Example 60, 2-Methoxy-6-methylsulfanyl-N-[(1-morpholin-4-yl-cyclobutyl)-phenyl-methyl]-4-trifluoromethyl-benzamide] |
| 0.0521 µM | COc1cc(C(F)(F)F)cc(SC)c1C(=O)NC(c1ccccc1)C1(N2C3CCC2COC3)CCC1 (racemic) [Example 71, (rac)-2-Methoxy-6-methylsulfanyl-N-{[1-(3-oxa-8-aza-bicyclo[3.2.1]oct-8-yl)-cyclobutyl]-phenyl-methyl}-4-trifluoromethyl-benzamide] |
| 0.0112 µM | COc1cc(C(F)(F)F)cc(SC)c1C(=O)NC(c1ccccc1)C1(N2CCCC2)CCC1 (stereo not shown) [Example 12, 2-Methoxy-6-methylsulfanyl-N-[phenyl-(1-pyrrolidin-1-yl-cyclobutyl)-methyl]-4-trifluoromethyl-benzamide] |
| 0.0148 µM | Cc1cc(C(F)(F)F)ccc1C(=O)NC(c1ccccc1)C1(N2CCCC2)CCC1 (stereo not shown) [Example 41, 2-Methyl-N-[phenyl-(1-pyrrolidin-1-yl-cyclobutyl)-methyl]-4-trifluoromethyl-benzamide] |
| 0.0181 µM | CSc1cc(C(F)(F)F)cc(C(F)(F)F)c1C(=O)NC(c1ccccc1)C1(N2CCCC2)CCC1 (single isomer, unassigned; (-)) [Example 31, (−)-2-Methylsulfanyl-N-[phenyl-(1-pyrrolidin-1-yl-cyclobutyl)-methyl]-4,6-bis-trifluoromethyl-benzamide] |
| 0.0211 µM | COc1cc(C(F)(F)F)cc(SC)c1C(=O)NC(c1ccc(Cl)cc1)C1(N2CCCC2)CCC1 (stereo not shown) [Example 39, N-[(4-Chloro-phenyl)-(1-pyrrolidin-1-yl-cyclobutyl)-methyl]-2-methoxy-6-methylsulfanyl-4-trifluoromethyl-benzamide] |
| 0.00847 µM | COc1cc(C(F)(F)F)cc(SC)c1C(=O)NC(c1ccccc1)C1(N2CCCC2)CCC1 (single isomer, unassigned; (+)) [Example 33, (+)-2-Methoxy-6-methylsufanyl-N-[phenyl-(1-pyrrolidin-1-yl-cyclobutyl)-methyl]-4-trifluoromethyl-benzamide] |
| 0.0253 µM | COc1cc(C(F)(F)F)cc(SC)c1C(=O)NC(c1ccccc1)C1(N2CCCC2)CC1 (stereo not shown) [Example 10, 2-Methoxy-6-methylsulfanyl-N-[phenyl-(1-pyrrolidin-1-yl-cyclopropyl)-methyl]-4-trifluoromethyl-benzamide] |
| 0.0596 µM | Cc1cc(F)ccc1C(=O)NC(c1ccccc1)C1(N2CCCC2)CCC1 (stereo not shown) [Example 57, 4-Fluoro-2-methyl-N-[phenyl-(1-pyrrolidin-1-yl-cyclobutyl)-methyl]-benzamide] |
| 0.0562 µM | O=C(NC(c1ccccc1)C1(N2CCCC2)CCC1)c1ccc(C(F)(F)F)cc1-c1ccccc1 (stereo not shown) [Example 67, 5-Trifluoromethyl-biphenyl-2-carboxylic acid [phenyl-(1-pyrrolidin-1-yl-cyclobutyl)-methyl]-amide] |
| 0.0142 µM | COc1cc(C(F)(F)F)cc(SC)c1C(=O)NC(c1ccccc1)C1(N(C)C)CCC1 (stereo not shown) [Example 51, N-[(1-Dimethylamino-cyclobutyl)-phenyl-methyl]-2-methoxy-6-methylsulfanyl-4-trifluoromethyl-benzamide] |
| 0.0261 µM | COc1cc(C(F)(F)F)cc(SC)c1C(=O)NC(c1ccccc1)C1(N2CC3(COC3)C2)CCC1 (stereo not shown) [Example 75, 2-Methoxy-6-methylsulfanyl-N-{[1-(2-oxa-6-aza-spiro[3.3]hept-6-yl)-cyclobutyl]-phenyl-methyl}-4-trifluoromethyl-benzamide] |
| 0.0494 µM | CSc1cc(C(F)(F)F)ccc1C(=O)NC(c1ccccc1)C1(N2CCN(C3CC3)CC2)CCC1 (stereo not shown) [Example 72, N-{[1-(4-Cyclopropyl-piperazin-1-yl)-cyclobutyl]-phenyl-methyl}-2-methylsulfanyl-4-trifluoromethyl-benzamide] |
| 0.0295 µM | CSc1cc(C(F)(F)F)cc(C(F)(F)F)c1C(=O)NC(c1ccccc1)C1(N2CCCC2)CCC1 (stereo not shown) [Example 9, 2-Methylsulfanyl-N-[phenyl-(1-pyrrolidin-1-yl-cyclobutyl)-methyl]-4,6-bis-trifluoromethyl-benzamide] |
| 0.0297 µM | Cc1cc(Cl)ccc1C(=O)NC(c1ccccc1)C1(N2CCCC2)CCC1 (stereo not shown) [Example 63, 4-Chloro-2-methyl-N-[phenyl-(1-pyrrolidin-1-yl-cyclobutyl)-methyl]-benzamide] |
| 0.0951 µM | O=C(NC(c1ccccc1)C1(N2CCCC2)CCC1)c1ccccc1C(F)(F)F (stereo not shown) [Example 44, N-[Phenyl-(1-pyrrolidin-1-yl-cyclobutyl)-methyl]-2-trifluoromethyl-benzamide] |
| 0.01 µM | CSc1cc(C(F)(F)F)ccc1C(=O)NC(c1ccccc1)C1(N(C)C)CCC1 (stereo not shown) [Example 50, N-[(1-Dimethylamino-cyclobutyl)-phenyl-methyl]-2-methylsulfanyl-4-trifluoromethyl-benzamide] |
| 0.0175 µM | COc1cc(C(F)(F)F)cc(SC)c1C(=O)NC(c1ccc(F)cc1)C1(N2CCCC2)CCC1 (stereo not shown) [Example 38, N-[(4-Fluoro-phenyl)-(1-pyrrolidin-1-yl-cyclobutyl)-methyl]-2-methoxy-6-methylsulfanyl-4-trifluoromethyl-benzamide] |

| Compound | IC50 |
| --- | --- |
| O=C(NC(c1ccccc1)C1(N2CCCC2)CCC1)c1ccc(Cl)cc1C(F)(F)F (stereo not shown) [Example 54] | 0.0275 µM |
| COc1cc(Cl)ccc1C(=O)NC(c1ccccc1)C1(N2CCCC2)CCC1 (stereo not shown) [Example 47, 4-Chloro-2-methoxy-N-[phenyl-(1-pyrrolidin-1-yl-cyclobutyl)-methyl]-benzamide] | 0.0724 µM |
